Test results: ChEMBL document CHEMBL4311959, “Discovery of a potent p38α/MAPK14 kinase inhibitor: Synthesis, in vitro/in vivo biological evaluation, and docking studies” (Eur J Med Chem, 2019)

What was measured:
[1] = target: Voltage-gated inwardly rectifying potassium channel KCNH2 (Homo sapiens, UniProt Q12809); assay: Inhibition of human ERG incubated for 4 hrs by competitive fluorescence tracer binding based assay
Homo sapiens [2] = species on record: Homo sapiens; assay: Selectivity index, ratio of IC50 for human RAF1 to IC50 for human p38alpha
[3] = target: Proto-oncogene tyrosine-protein kinase ROS (Homo sapiens) (UniProt P08922); assay: Inhibition of human ROS at 10 uM using KKKSPGEYVNIEFG as substrate by [gamma-33P]-ATP assay relative to control
[4] = target: Insulin receptor (Homo sapiens) (UniProt P06213); assay: Inhibition of human IR at 10 uM using poly[Glu:Tyr] (4:1) as substrate by [gamma-33P]-ATP assay relative to control
Insulin receptor (Homo sapiens), sequence (P06213 28-758 limits assumed): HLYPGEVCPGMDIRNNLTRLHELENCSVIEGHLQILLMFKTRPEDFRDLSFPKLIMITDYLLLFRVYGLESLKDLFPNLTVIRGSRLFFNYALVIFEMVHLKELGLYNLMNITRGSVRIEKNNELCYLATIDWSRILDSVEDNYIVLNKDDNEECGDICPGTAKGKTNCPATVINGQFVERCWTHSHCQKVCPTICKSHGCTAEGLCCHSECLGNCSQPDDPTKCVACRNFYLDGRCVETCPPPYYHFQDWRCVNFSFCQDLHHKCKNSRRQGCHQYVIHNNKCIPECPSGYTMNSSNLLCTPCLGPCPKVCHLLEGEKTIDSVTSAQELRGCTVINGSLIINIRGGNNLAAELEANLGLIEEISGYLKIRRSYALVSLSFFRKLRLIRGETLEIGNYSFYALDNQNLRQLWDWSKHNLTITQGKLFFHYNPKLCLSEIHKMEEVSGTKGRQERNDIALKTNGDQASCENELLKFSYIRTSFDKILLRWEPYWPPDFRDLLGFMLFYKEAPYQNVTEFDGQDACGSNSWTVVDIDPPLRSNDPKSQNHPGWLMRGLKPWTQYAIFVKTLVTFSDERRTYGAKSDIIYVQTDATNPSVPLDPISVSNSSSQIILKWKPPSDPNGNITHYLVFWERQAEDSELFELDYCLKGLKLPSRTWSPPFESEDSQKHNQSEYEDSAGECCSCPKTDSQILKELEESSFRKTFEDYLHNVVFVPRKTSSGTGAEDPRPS
Insulin receptor (Homo sapiens), sequence (P06213 763-1382 limits assumed): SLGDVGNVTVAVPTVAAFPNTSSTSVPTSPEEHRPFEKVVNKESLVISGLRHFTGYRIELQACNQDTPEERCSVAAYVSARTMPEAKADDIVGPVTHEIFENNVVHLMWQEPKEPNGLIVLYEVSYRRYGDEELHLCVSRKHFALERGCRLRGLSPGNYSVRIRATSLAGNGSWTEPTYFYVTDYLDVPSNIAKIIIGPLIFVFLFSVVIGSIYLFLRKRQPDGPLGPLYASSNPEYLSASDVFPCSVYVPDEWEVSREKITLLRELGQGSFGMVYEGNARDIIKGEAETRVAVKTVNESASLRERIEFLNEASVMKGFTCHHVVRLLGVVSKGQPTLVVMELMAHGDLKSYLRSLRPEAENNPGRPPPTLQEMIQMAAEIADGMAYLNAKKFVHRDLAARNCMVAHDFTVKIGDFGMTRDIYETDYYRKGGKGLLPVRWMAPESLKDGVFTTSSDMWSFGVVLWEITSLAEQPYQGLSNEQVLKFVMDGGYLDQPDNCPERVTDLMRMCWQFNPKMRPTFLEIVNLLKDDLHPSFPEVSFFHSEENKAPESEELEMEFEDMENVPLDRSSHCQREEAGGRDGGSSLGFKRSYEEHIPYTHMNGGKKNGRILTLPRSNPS

[5] = target: Dual specificity mitogen-activated protein kinase kinase 6 (Homo sapiens) (UniProt P52564); assay: Inhibition of human MKK6 at 10 uM using p38alpha as substrate by [gamma-33P]-ATP assay relative to control
[6] = target: Glycogen synthase kinase-3 beta (Homo sapiens) (UniProt P49841); assay: Inhibition of human GSK3B at 10 uM using YRRAAVPPSPSLSRHSSPHQ(pS)EDEEE as substrate by [gamma-33P]-ATP assay relative to control
[7] = target: Mitogen-activated protein kinase 3 (Homo sapiens) (UniProt P27361); assay: Inhibition of human ERK1 at 10 uM using MBP as substrate by [gamma-33P]-ATP assay relative to control
[8] = target: Tyrosine-protein kinase BTK (Homo sapiens) (UniProt Q06187); assay: Inhibition of human BTK at 10 uM using KVEKIGEGTYGVVYK as substrate by [gamma-33P]-ATP assay relative to control
[9] = target: Mitogen-activated protein kinase 1 (Homo sapiens) (UniProt P28482); assay: Inhibition of human ERK2 at 10 uM using MBP as substrate by [gamma-33P]-ATP assay relative to control
Mitogen-activated protein kinase 1 (Homo sapiens), sequence (P28482 whole entry): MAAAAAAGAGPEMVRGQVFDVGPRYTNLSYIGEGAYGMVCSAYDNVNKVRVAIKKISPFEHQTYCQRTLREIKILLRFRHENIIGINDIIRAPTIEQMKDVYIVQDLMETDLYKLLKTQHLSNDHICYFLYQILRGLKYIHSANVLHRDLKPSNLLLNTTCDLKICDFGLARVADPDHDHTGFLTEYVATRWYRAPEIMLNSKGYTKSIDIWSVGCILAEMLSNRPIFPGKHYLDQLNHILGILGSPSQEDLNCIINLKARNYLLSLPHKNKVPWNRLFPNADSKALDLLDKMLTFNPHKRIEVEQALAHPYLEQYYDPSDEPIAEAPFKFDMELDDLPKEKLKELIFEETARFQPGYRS

[10] = target: Receptor-type tyrosine-protein kinase FLT3 (Homo sapiens) (UniProt P36888); assay: Inhibition of human FLT3 at 10 uM using EAIYAAPFAKKK as substrate by [gamma-33P]-ATP assay relative to control
[11] = target: Tyrosine-protein kinase JAK1 (Homo sapiens) (UniProt P23458); assay: Inhibition of human JAK1 at 10 uM using poly[Glu:Tyr] (4:1) as substrate by [gamma-33P]-ATP assay relative to control
Tyrosine-protein kinase JAK1 (Homo sapiens), sequence (P23458 whole entry): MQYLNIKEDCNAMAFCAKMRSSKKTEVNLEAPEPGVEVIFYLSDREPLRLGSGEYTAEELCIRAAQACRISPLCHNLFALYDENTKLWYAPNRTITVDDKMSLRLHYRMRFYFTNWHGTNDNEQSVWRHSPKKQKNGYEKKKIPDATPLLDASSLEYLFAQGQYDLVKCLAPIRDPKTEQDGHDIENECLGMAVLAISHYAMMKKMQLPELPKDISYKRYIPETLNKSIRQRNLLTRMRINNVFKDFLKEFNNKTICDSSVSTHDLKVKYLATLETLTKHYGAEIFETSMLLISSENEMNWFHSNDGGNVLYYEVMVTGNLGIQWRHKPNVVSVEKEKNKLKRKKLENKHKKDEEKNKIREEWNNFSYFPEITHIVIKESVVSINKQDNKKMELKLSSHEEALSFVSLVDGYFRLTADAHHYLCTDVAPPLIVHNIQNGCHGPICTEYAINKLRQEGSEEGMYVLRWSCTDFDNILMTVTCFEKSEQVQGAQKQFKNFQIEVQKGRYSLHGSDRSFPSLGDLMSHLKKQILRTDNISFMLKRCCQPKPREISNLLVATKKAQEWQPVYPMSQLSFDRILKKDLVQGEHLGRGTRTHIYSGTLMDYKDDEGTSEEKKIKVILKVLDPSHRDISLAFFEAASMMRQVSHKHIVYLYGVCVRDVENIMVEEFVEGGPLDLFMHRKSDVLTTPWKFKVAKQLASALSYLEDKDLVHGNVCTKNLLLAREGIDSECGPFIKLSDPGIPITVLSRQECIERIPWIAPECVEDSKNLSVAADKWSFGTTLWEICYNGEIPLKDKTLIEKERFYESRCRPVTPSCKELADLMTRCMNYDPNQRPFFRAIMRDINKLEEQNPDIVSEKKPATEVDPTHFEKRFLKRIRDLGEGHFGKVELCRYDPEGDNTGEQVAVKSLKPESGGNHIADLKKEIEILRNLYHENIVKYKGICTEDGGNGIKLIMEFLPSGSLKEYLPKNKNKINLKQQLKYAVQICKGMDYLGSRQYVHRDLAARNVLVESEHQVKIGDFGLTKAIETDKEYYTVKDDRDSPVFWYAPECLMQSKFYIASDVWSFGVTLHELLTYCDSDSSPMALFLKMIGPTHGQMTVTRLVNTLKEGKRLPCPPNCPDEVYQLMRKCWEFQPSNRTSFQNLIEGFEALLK

[12] = target: Tyrosine-protein kinase JAK2 (Homo sapiens) (UniProt O60674); assay: Inhibition of human JAK2 at 10 uM using poly[Glu:Tyr] (4:1) as substrate by [gamma-33P]-ATP assay relative to control
[13] = target: Mitogen-activated protein kinase 14 (Homo sapiens, UniProt Q16539); assay: Inhibition of human p38alpha at 10 uM using MBP as substrate by [gamma-33P]-ATP assay relative to control
[14] = target: Vascular endothelial growth factor receptor 2 (Homo sapiens) (UniProt P35968); assay: Inhibition of human KDR at 10 uM using poly[Glu:Tyr] (4:1) as substrate by [gamma-33P]-ATP assay relative to control
[15] = target: Mast/stem cell growth factor receptor Kit (Homo sapiens) (UniProt P10721); assay: Inhibition of human c-KIT at 10 uM using poly[Glu:Tyr] (4:1) as substrate by [gamma-33P]-ATP assay relative to control
Mast/stem cell growth factor receptor Kit (Homo sapiens), sequence (P10721 whole entry): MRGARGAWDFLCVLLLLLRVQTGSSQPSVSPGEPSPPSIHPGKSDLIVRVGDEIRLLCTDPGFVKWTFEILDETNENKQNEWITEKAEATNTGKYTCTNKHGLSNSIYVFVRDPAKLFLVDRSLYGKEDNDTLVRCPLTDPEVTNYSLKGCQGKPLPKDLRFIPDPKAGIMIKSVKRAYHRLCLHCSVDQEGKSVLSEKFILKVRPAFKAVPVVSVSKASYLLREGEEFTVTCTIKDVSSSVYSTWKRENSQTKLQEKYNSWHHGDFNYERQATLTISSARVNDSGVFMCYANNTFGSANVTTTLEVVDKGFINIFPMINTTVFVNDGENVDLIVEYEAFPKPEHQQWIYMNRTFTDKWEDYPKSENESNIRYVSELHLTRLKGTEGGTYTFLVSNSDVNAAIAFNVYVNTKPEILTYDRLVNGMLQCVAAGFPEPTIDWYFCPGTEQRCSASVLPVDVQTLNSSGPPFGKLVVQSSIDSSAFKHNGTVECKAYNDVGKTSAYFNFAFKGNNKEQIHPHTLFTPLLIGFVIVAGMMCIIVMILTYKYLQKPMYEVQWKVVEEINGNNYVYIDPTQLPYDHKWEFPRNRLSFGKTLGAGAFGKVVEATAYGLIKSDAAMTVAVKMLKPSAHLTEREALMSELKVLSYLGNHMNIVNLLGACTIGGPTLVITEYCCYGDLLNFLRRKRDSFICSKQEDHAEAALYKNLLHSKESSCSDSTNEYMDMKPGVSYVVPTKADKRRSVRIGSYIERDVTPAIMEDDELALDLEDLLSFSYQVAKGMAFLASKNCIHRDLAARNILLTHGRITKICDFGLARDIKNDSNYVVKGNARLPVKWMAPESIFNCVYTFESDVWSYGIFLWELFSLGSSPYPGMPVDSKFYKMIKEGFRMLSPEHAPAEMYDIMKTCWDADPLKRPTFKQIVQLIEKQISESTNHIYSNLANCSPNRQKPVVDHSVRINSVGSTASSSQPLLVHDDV

[16] = target: Hepatocyte growth factor receptor (Homo sapiens, UniProt P08581); assay: Inhibition of human c-MET at 10 uM using KKKSPGEYVNIEFG as substrate by [gamma-33P]-ATP assay relative to control
[17] = target: RAF proto-oncogene serine/threonine-protein kinase (Homo sapiens, UniProt P04049); assay: Inhibition of human RAF1 at 10 uM using MEK1 (K97R) as substrate by [gamma-33P]-ATP assay relative to control
[18] = target: DNA-dependent protein kinase catalytic subunit (Homo sapiens) (UniProt P78527); assay: Inhibition of human DNAPK at 10 uM using EPPLSQEAFADLWKK as substrate by […]-ATP assay relative to control
[19] = target: Aurora kinase A (Homo sapiens) (UniProt O14965); assay: Inhibition of human Aurora A at 10 uM using [H-LRRASLG] as substrate by [gamma-33P]-ATP assay relative to control
Aurora kinase A (Homo sapiens), sequence (O14965 whole entry): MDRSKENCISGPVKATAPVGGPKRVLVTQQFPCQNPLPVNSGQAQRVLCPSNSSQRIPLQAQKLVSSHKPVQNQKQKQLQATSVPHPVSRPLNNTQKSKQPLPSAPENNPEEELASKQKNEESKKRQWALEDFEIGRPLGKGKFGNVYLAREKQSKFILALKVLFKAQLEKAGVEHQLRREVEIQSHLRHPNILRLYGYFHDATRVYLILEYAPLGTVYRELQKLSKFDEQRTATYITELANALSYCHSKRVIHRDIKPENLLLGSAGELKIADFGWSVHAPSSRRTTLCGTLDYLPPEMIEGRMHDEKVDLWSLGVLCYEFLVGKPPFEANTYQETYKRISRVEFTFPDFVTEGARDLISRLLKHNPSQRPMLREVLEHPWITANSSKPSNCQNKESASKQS

[20] = target: Serine/threonine-protein kinase A-Raf (Homo sapiens) (UniProt P10398); assay: Inhibition of human ARAF at 10 uM using MEK1 as substrate by [gamma-33P]-ATP assay relative to control
Homo sapiens [21] = species on record: Homo sapiens; assay: Selectivity index, ratio of IC50 for human BRAF V600E mutant to IC50 for human p38alpha
[22] = target: Serine/threonine-protein kinase B-raf (Homo sapiens, UniProt P15056, V600E); assay: Inhibition of human BRAF V600E mutant using MEK1 as substrate by […]-ATP assay
Serine/threonine-protein kinase B-raf, sequence (P15056 2-766 V600E limits assumed): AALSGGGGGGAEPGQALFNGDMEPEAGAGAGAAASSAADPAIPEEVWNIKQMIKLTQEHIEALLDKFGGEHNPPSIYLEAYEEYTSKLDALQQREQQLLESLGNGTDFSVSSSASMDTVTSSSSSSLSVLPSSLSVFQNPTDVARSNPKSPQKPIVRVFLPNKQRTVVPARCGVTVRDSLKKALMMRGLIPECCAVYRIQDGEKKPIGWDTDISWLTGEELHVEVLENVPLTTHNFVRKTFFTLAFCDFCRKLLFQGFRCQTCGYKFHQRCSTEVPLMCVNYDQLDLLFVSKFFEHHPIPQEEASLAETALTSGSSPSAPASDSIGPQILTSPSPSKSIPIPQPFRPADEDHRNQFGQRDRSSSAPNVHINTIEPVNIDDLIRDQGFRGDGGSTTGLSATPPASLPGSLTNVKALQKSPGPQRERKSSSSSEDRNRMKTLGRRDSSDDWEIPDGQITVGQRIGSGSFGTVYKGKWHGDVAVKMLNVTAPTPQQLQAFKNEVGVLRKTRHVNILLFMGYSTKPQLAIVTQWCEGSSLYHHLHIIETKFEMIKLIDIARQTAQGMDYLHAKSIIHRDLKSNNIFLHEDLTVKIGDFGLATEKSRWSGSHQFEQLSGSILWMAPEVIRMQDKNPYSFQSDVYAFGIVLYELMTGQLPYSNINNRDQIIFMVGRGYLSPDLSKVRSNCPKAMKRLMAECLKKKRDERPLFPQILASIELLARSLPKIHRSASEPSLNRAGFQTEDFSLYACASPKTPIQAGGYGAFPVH

[23] = Stability in human plasma assessed as remaining compound at 10 uM incubated for 30 mins by LC-MS analysis; format: ADME, cell-free; settings: read-out: Stability
[24] = Stability in human plasma assessed as remaining compound at 10 uM incubated for 120 mins by LC-MS analysis; format: ADME, cell-free; settings: read-out: Stability
[25] = Stability in rat plasma assessed as remaining compound at 10 uM incubated for 120 mins by LC-MS analysis; format: ADME, cell-free; settings: read-out: Stability
[26] = AUCinfinity in Sprague-Dawley rat at 10 mg/kg, po measured for each 30 mins by LC-MS/MS analysis; format: ADME, organism-based; parameters: dose 10 mg/kg, time infinity, route oral; settings: in vivo
[27] = Half life in Sprague-Dawley rat at 10 mg/kg, po measured for each 30 mins by LC-MS/MS analysis; format: ADME, organism-based; settings: in vivo
Rattus norvegicus = assay: Antiinflammatory activity in Sprague-Dawley rat assessed as inhibition of carrageenan-induced paw edema at 50 mg/kg, ip administered 1 hr before carrageenan stimulation and measured after 3 hrs relative to control; format: functional

Structure (SMILES): COc1ccc(-c2nn(-c3cccc(NC(=O)c4cccc(C(F)(F)F)c4)c3)cc2-c2ccncc2)cc1Cl
- IC50 [1]: 13.1 µM
- Ratio IC50 (Homo sapiens [2]): 15.3
- inhibition [3]: 5.26%
- inhibition [4]: -0.36%
- inhibition [5]: 29.5%
- inhibition [6]: -6.34%
- inhibition [7]: -1.3%
- inhibition [8]: 5.62%
- inhibition [9]: 1.72%
- inhibition [10]: -5.65%
- inhibition [11]: -7.68%
- inhibition [12]: -9.88%
- inhibition [13]: 94.6%
- inhibition [14]: 13.2%
- inhibition [15]: 5.66%
- inhibition [16]: 77.7%
- inhibition [17]: 90.5%
- inhibition [18]: -1.83%
- inhibition [19]: 3.1%
- inhibition [20]: 64.2%
- Ratio IC50 (Homo sapiens [21]): 7.18
- IC50 [22]: 0.158 µM
- remaining at 0.5 h, 10 µM [23]: 100%
- remaining at 2 h, 10 µM [24]: 98.4%
- remaining at 2 h, 10 µM [25]: 100%
- AUC(0-inf) [26]: 169 ng·h/mL
- half-life [27]: 7.3 h
- inhibition in vivo at 50 mg/kg (Rattus norvegicus): 66.5%
